Reference: patent US8168651B2, “Protein kinase modulators” (Cylene Pharmaceuticals, Inc., priority 2008, dated 2012)

Legend:
recombinant human PIM1 = recombinant human PIM1 (Homo sapiens (Human), UniProt P11309); experiment: PIM-1 kinase activity in cell-free in vitro assay; assay type: biochemical; settings: cell-free assay; for inhibition at 0.5 µM: 500 nM compound, read-out: PIM-1: % inh 500 nM
K-562 = experiment: Cell proliferation modulatory activity, K-562; assay type: cell-based; settings: Homo sapiens, K562; K-562 cells
recombinant human CK2 = recombinant human CK2 (Homo sapiens (Human), UniProt P68400); experiment: CK2 assay (cell-free, 33P-ATP filter plate); assay type: biochemical; settings: 500 nM compound, cell-free assay; read-out: CK2: % inh 500 nM
[1] = test system: HCT-116 human colorectal carcinoma cells; experiment: Cell-proliferation assay using Alamar Blue dye; assay type: cell-based; settings: Homo sapiens, HCT-116, second HCT-116 column (c8); read-out: HCT-116 (uM) cell proliferation modulatory activity;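 further: cells exposed to compound for about 4 days, then Alamar Blue added and dye fluorescence read after about 4 h, compared with medium-only control wells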
MV-4-11 = experiment: Cell proliferation modulatory activity, MV-4-11; assay type: cell-based; settings: Homo sapiens, MV4-11; MV-4-11 cells

Chain of recombinant human CK2 (P68400 whole entry): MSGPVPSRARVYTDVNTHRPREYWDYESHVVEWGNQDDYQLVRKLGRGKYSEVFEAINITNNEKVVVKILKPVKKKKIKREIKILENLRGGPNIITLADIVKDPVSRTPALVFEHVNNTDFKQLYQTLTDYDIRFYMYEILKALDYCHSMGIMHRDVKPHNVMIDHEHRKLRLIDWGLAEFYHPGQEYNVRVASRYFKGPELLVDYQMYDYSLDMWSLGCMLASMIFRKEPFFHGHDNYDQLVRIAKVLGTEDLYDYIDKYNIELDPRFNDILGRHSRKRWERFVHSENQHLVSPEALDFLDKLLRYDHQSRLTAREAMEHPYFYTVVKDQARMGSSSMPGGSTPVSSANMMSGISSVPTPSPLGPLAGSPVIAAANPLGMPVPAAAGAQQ
Chain of recombinant human CK2 (P67870 whole entry partner): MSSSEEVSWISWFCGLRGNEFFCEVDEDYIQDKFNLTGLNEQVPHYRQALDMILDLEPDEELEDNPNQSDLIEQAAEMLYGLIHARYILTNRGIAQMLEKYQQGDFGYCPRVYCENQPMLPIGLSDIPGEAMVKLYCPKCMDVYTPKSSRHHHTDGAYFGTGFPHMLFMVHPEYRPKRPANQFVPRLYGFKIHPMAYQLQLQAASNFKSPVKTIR
Chain of recombinant human PIM1 (P11309 whole entry): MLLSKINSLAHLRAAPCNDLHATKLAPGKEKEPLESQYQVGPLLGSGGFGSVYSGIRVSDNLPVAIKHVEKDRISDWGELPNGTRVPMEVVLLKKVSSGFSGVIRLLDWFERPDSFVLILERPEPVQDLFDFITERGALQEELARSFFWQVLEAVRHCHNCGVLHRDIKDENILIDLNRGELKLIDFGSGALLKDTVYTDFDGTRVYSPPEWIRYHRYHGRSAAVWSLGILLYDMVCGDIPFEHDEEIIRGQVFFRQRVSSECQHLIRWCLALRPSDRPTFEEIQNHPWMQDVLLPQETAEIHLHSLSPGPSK

| SMILES | inhibition at 0.5 µM (recombinant human PIM1) | IC50 (recombinant human PIM1) | IC50 (K-562) | inhibition at 0.5 µM (recombinant human CK2) | IC50 [1] | IC50 (MV-4-11) |
| --- | --- | --- | --- | --- | --- | --- |
| CCN(c1ccccc1)c1nc2cc(C(=O)O)ccc2c2cnccc12 | 28% | – | 0.339 µM | 91.8% | > 10 µM | > 10 µM |
| O=C(O)c1ccc2c(c1)nc(Nc1cccc(Cl)c1)c1cccnc12 | 59.9% | 0.634 µM | > 10 µM | 61.1% | > 10 µM | > 10 µM |
| O=C(O)c1ccc2c(c1)nc(Nc1ccc(F)c(Cl)c1)c1cccnc12 | 22.1% | – | > 10 µM | 19.6% | > 10 µM | > 10 µM |
| C#Cc1cccc(Nc2nc3cc(C(=O)O)ccc3c3ncccc23)c1 | 34.9% | – | > 10 µM | 77.5% | > 10 µM | > 10 µM |
| O=C(O)c1ccc2c(c1)nc(Nc1ccccc1)c1cccnc12 | 34.7% | – | > 10 µM | 25.5% | > 10 µM | > 10 µM |
| O=C(O)c1ccc2c(c1)nc(Nc1cccc(F)c1)c1cccnc12 | 37.8% | – | > 10 µM | 35% | > 10 µM | > 10 µM |
| CNc1ncc2c(n1)c(N(C)c1ccccc1)nc1cc(C(=O)O)ccc12 | 86.6% | 0.147 µM | > 10 µM | 94.5% | > 10 µM | > 10 µM |
| CN(C)c1ncc2c(n1)c(N(C)c1ccccc1)nc1cc(C(=O)O)ccc12 | 12.2% | – | > 10 µM | 14% | > 10 µM | > 10 µM |
| CC(C)Nc1ncc2c(n1)c(N(C)c1ccccc1)nc1cc(C(=O)O)ccc12 | 39.9% | – | > 10 µM | 91.7% | > 10 µM | > 10 µM |
| CCOCCNc1ncc2c(n1)c(N(C)c1ccccc1)nc1cc(C(=O)O)ccc12 | 54.9% | 0.649 µM | > 10 µM | 79.4% | > 10 µM | > 10 µM |
| c1ccc(Nc2nc3ccccc3c3cnccc23)cc1 | 7% | – | > 10 µM | 0.786% | > 10 µM | 7.04 µM |
| Clc1nc2ccccc2c2cnccc12 | -2.61% | – | > 10 µM | 9.99% | > 10 µM | > 10 µM |

Other lines, results leading:

| inhibition at 0.5 µM (recombinant human PIM1) | IC50 (recombinant human PIM1) | IC50 (K-562) | inhibition at 0.5 µM (recombinant human CK2) | IC50 [1] | IC50 (MV-4-11) | SMILES |
| --- | --- | --- | --- | --- | --- | --- |
| 79.1% | 0.281 µM | > 10 µM | 101% | > 10 µM | > 10 µM | O=C(O)c1ccc2c(c1)nc(Nc1cccc3ncccc13)c1ccncc12 |
| 35.7% | – | > 10 µM | 93.1% | > 10 µM | > 10 µM | O=C(O)c1ccc2c(c1)nc(Nc1cccc3ccccc13)c1ccncc12 |
| 32.6% | – | 0.11 µM | 98.1% | 9.82 µM | 3.28 µM | CCn1c2ccccc2c2cc(Nc3nc4cc(C(=O)O)ccc4c4cnccc34)ccc21 |
| 54.9% | 0.344 µM | > 10 µM | 94.4% | > 10 µM | > 10 µM | Cn1cnnc1-c1cccc(Nc2nc3cc(C(=O)O)ccc3c3cnccc23)c1 |
| 60.6% | 0.478 µM | 0.132 µM | 98% | > 10 µM | 9.31 µM | Cc1ccc(Nc2nc3cc(C(=O)O)ccc3c3cnccc23)cc1 |
| 81.8% | 0.321 µM | > 10 µM | 100% | > 10 µM | > 10 µM | Nc1ccc(CCNc2nc3cc(C(=O)O)ccc3c3cnccc23)cc1 |
| 13.7% | – | > 10 µM | 5.71% | > 10 µM | > 10 µM | O=C(O)c1ccc2c(c1)nc(NCCc1ccccc1)c1cccnc12 |
